# Reference: the supplement of paper PMC13207355
# How the values were obtained:
# Settings in all cases: exposure time: 72 h
# E31 [1] = patient-derived glioblastoma stem cells of proneural subtype; assay: surviving fraction (nuclei count normalised to DMSO); higher = more cells surviving (less toxic)
# E21 [2] = patient-derived glioblastoma stem cells of mesenchymal subtype; assay: as above
# E13 [3] = patient-derived glioblastoma stem cells of classical subtype; assay: as above
# E28 [4] = patient-derived glioblastoma stem cells of classical subtype; assay: as above
# FT3469 [5] = normal neural stem cell line; assay: as above
# E34 [6] = patient-derived glioblastoma stem cells of proneural subtype; assay: as above
# E57 [7] = patient-derived glioblastoma stem cells of mesenchymal subtype; assay: as above
# E31 [8] = assay: phenotypic distance (Euclidean, principal components) from DMSO controls (arbitrary units); higher = stronger morphological change
# E21 [9] = assay: as above
# E13 [10] = assay: as above
# E28 [11] = assay: as above
# FT3469 [12] = assay: as above
# E34 [13] = assay: as above
# E57 [14] = assay: as above
# 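For phenotypic distance (Euclidean, principal components) from DMSO controls in this document: cell Painting imaging in 384-well plates, CellProfiler features reduced to at least 20 principal components, Euclidean distance versus same-plate DMSO vehicle wells (0.1% v/v), median over six images per well.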
# 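For surviving fraction (nuclei count normalised to DMSO) in this document: nuclei counted by high-content imaging of Hoechst-stained cells in laminin-coated 384-well plates, relative to 0.1% DMSO vehicle wells, with staurosporine as cell-death control.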
structure (smiles),measurement,setting,value
COC(=O)Nc1nc2cc(C(=O)c3ccc(F)cc3)ccc2[nH]1 [Flubendazol],surviving fraction,E31 [1]; 4.1 nM,0.887
same,surviving fraction,E31 [1]; 12.3 nM,0.95
same,surviving fraction,E31 [1]; 37 nM,0.807
same,surviving fraction,E31 [1]; 111.1 nM,0.615
same,surviving fraction,E31 [1]; 333.3 nM,0.329
same,surviving fraction,E31 [1]; 1000 nM,0.118
same,surviving fraction,E31 [1]; 3000 nM,0.0708
same,surviving fraction,E21 [2]; 4.1 nM,1.09
same,surviving fraction,E21 [2]; 12.3 nM,0.929
same,surviving fraction,E21 [2]; 37 nM,0.954
same,surviving fraction,E21 [2]; 111.1 nM,0.885
same,surviving fraction,E21 [2]; 333.3 nM,0.777
same,surviving fraction,E21 [2]; 1000 nM,0.161
same,surviving fraction,E21 [2]; 3000 nM,0.137
same,surviving fraction,E13 [3]; 4.1 nM,0.992
same,surviving fraction,E13 [3]; 12.3 nM,1.12
same,surviving fraction,E13 [3]; 37 nM,1.11
same,surviving fraction,E13 [3]; 111.1 nM,0.943
same,surviving fraction,E13 [3]; 333.3 nM,0.471
same,surviving fraction,E13 [3]; 1000 nM,0.261
same,surviving fraction,E13 [3]; 3000 nM,0.234
same,surviving fraction,E28 [4]; 4.1 nM,1.07
same,surviving fraction,E28 [4]; 12.3 nM,1.09
same,surviving fraction,E28 [4]; 37 nM,1.02
same,surviving fraction,E28 [4]; 111.1 nM,1.02
same,surviving fraction,E28 [4]; 333.3 nM,0.67
same,surviving fraction,E28 [4]; 1000 nM,0.361
same,surviving fraction,E28 [4]; 3000 nM,0.234
same,surviving fraction,FT3469 [5]; 4.1 nM,1.16
same,surviving fraction,FT3469 [5]; 12.3 nM,0.827
same,surviving fraction,FT3469 [5]; 37 nM,0.997
same,surviving fraction,FT3469 [5]; 111.1 nM,0.747
same,surviving fraction,FT3469 [5]; 333.3 nM,0.644
same,surviving fraction,FT3469 [5]; 1000 nM,0.524
same,surviving fraction,FT3469 [5]; 3000 nM,0.564
same,surviving fraction,E34 [6]; 4.1 nM,1.14
same,surviving fraction,E34 [6]; 12.3 nM,0.942
same,surviving fraction,E34 [6]; 37 nM,0.985
same,surviving fraction,E34 [6]; 111.1 nM,0.904
same,surviving fraction,E34 [6]; 333.3 nM,0.661
same,surviving fraction,E34 [6]; 1000 nM,0.473
same,surviving fraction,E34 [6]; 3000 nM,0.324
same,surviving fraction,E57 [7]; 4.1 nM,0.998
same,surviving fraction,E57 [7]; 12.3 nM,0.941
same,surviving fraction,E57 [7]; 37 nM,1.06
same,surviving fraction,E57 [7]; 111.1 nM,0.996
same,surviving fraction,E57 [7]; 333.3 nM,0.739
same,surviving fraction,E57 [7]; 1000 nM,0.134
same,surviving fraction,E57 [7]; 3000 nM,0.0682
same,phenotypic distance,E31 [8]; 4.1 nM,0.507
same,phenotypic distance,E31 [8]; 12.3 nM,0.548
same,phenotypic distance,E31 [8]; 37 nM,0.79
same,phenotypic distance,E31 [8]; 111.1 nM,1.36
same,phenotypic distance,E31 [8]; 333.3 nM,3.16
same,phenotypic distance,E31 [8]; 1000 nM,5.22
same,phenotypic distance,E31 [8]; 3000 nM,7.77
same,phenotypic distance,E21 [9]; 4.1 nM,0.658
same,phenotypic distance,E21 [9]; 12.3 nM,1.03
same,phenotypic distance,E21 [9]; 37 nM,0.833
same,phenotypic distance,E21 [9]; 111.1 nM,1.63
same,phenotypic distance,E21 [9]; 333.3 nM,2.94
same,phenotypic distance,E21 [9]; 1000 nM,7.4
same,phenotypic distance,E21 [9]; 3000 nM,7.27
same,phenotypic distance,E13 [10]; 4.1 nM,0.372
same,phenotypic distance,E13 [10]; 12.3 nM,0.737
same,phenotypic distance,E13 [10]; 37 nM,0.86
same,phenotypic distance,E13 [10]; 111.1 nM,1.59
same,phenotypic distance,E13 [10]; 333.3 nM,3.72
same,phenotypic distance,E13 [10]; 1000 nM,6.11
same,phenotypic distance,E13 [10]; 3000 nM,6.68
same,phenotypic distance,E28 [11]; 4.1 nM,0.523
same,phenotypic distance,E28 [11]; 12.3 nM,0.55
same,phenotypic distance,E28 [11]; 37 nM,0.574
same,phenotypic distance,E28 [11]; 111.1 nM,1.08
same,phenotypic distance,E28 [11]; 333.3 nM,1.98
same,phenotypic distance,E28 [11]; 1000 nM,3.45
same,phenotypic distance,E28 [11]; 3000 nM,3.81
same,phenotypic distance,FT3469 [12]; 4.1 nM,0.499
same,phenotypic distance,FT3469 [12]; 12.3 nM,0.843
same,phenotypic distance,FT3469 [12]; 37 nM,0.655
same,phenotypic distance,FT3469 [12]; 111.1 nM,0.943
same,phenotypic distance,FT3469 [12]; 333.3 nM,2.08
same,phenotypic distance,FT3469 [12]; 1000 nM,3.42
same,phenotypic distance,FT3469 [12]; 3000 nM,3.26
same,phenotypic distance,E34 [13]; 4.1 nM,0.541
same,phenotypic distance,E34 [13]; 12.3 nM,0.863
same,phenotypic distance,E34 [13]; 37 nM,0.46
same,phenotypic distance,E34 [13]; 111.1 nM,1.21
same,phenotypic distance,E34 [13]; 333.3 nM,1.98
same,phenotypic distance,E34 [13]; 1000 nM,3.35
same,phenotypic distance,E34 [13]; 3000 nM,4.79
same,phenotypic distance,E57 [14]; 4.1 nM,0.67
same,phenotypic distance,E57 [14]; 12.3 nM,0.423
same,phenotypic distance,E57 [14]; 37 nM,0.428
same,phenotypic distance,E57 [14]; 111.1 nM,1.31
same,phenotypic distance,E57 [14]; 333.3 nM,2.68
same,phenotypic distance,E57 [14]; 1000 nM,5.07
same,phenotypic distance,E57 [14]; 3000 nM,4.95
